Measurements taken from article PMC10136548, “Evaluation of 3D Human Intestinal Organoids as a Platform for EV-A71 Antiviral Drug Discovery” (Cells, 2023).

Columns and labels:
EV-A71 BrCr strain [1] = assay: CPE inhibition in EV-A71-infected HIOs; assay type: cell-based, Enterovirus A71; settings: for Selectivity Index (SI) = CC50/EC50: EC50 from CPE inhibition; for EC50: Enterovirus A, EVA71, EV-A71 MOI 0.1, 72 h, read-out: EC50 based on CPE inhibition; for EV-A71-induced CPE upon visual inspection: 1.25 μM, 72 hpi
Experimental: (§1) EV-A71 BrCr strain, a gift from Prof. F. van Kuppeveld (University of Utrecht, Utrecht, The Netherlands), was propagated in RD cells, cultured in 2% FBS-DMEM at 37 °C under 5% CO2. […] EV-A71 stock titer was determined by the 50% tissue culture infective dose (TCID50) assay (Reed and Muench, 1938).
(§2) For infection, HIOs were mechanically fragmented by vigorously pipetting using a P1000 to expose the apical surface to the virus inoculum as previously described. After virus inoculation (MOI = 0.01, 0.1, or 1) with EV-A71 or mock infection, the mixture was then incubated for 2 h at 37 °C for virus adsorption. After washing, the infected HIO fragments were mixed with 20% Matrigel-organoid growth medium and seeded at 10,000 cells/well in a 96-well plate pre-coated with 20% Matrigel-organoid growth medium at 50 µL/well.
(§3) Viability of HIOs and RD cells were determined by Cell Titer-Glo® 3D Cell Viability Assay (Promega, Fitchburg, WI, USA) and Cell Titer-Glo® Luminescent Cell Viability Assay (Promega), respectively. According to the manufacturer’s instructions, in a white 96-well plate (Greiner Bio-One, Stonehouse, UK), a 1:1 ratio of reagent and spent culture medium was added to the wells and mixed, and the luminescence signal was measured by CLARIO star plus (B M G Labtech Ltd., Aylesbury, UK).
(§4) For determination of compounds’ half maximal cytotoxic concentration (CC50), the non-infected HIOs/cells were treated with compounds (0.5–100 μM) for 72 h. The viability % was calculated as follows: (luminescence reading compound treated)/(luminescence reading DMSO control) × 100. The CC50 was calculated using non-linear regression (curve fit) with GraphPad Prism 9 (GraphPad, La Jolla, CA, USA). […] The CPE inhibition % was calculated as follows: (luminescence reading compound treated)/(luminescence reading DMSO control) × 100. The EC50 was calculated using non-linear regression (curve fit) with GraphPad Prism 9 (GraphPad).
(§5) Figure 4 Comparison of antiviral activity determined by CPE inhibition and viral RNA yield between HIOs and RD cells. (A) Viability of HIOs and RD cells was measured, using Cell Titer-Glo 3D or Cell Titer-Glo, after 72 h of EV-A71 infection at MOI 0.1 and incubation with compounds at indicated concentrations. CPE inhibition is calculated based on percentage of mock-infected control. The half maximal effective concentration (EC50) was calculated using Prism nonlinear regression (GraphPad Prism 9). (B) For viral RNA yield, HIOs and RD cells were infected with EV-A71 at an MOI of 0.1 and treated with compounds at indicated concentrations for 72 h before total culture of HIOs or supernatant of cells were collected by combining triplicates and determined by RT-qPCR. Viral RNA yield is calculated based on percentage of mock-infected control. The EC50 was calculated using Prism nonlinear regression (GraphPad Prism 9). (C) Brightfield images of mock control, infection treated with 1.25 µM rupintrivir, and infected control HIOs and RD cells at 72 hpi. All images were acquired using the same objective. Scale bar, […]. (D) Images represent mock-, EV-A71-infected HIOs (0.1 MOI), and EV-A71-infected HIOs (0.1 MOI) treated with rupintrivir (10 µM) at 48 hpi: DAPI (blue) for nucleus, phalloidin (red) for F-actin, and dsRNA (green). Scale bar, […]. Data are the mean ± SEM of at least six independent experiments; each carried out in triplicate.

EV-A71 BrCr strain [2] = assay: CPE inhibition in EV-A71-infected RD cells; assay type: cell-based, Enterovirus A71; settings: for Selectivity Index (SI) = CC50/EC50: EC50 from CPE inhibition; for EC50: Enterovirus A, EVA71, EV-A71 MOI 0.1, 72 h, read-out: EC50 based on CPE inhibition; for EV-A71-induced CPE upon visual inspection: 1.25 μM, 72 hpi
Experimental: as §1
(§6) For RD cell line infection, 20,000 cells/well were cultured in 96-well plate at 37 °C for 24 h. To prepare virus inoculum (MOI = 0.01, 0.1, or 1), EV-A71 was diluted in 2% FBS-DMEM. Medium on cell monolayer was removed, and the inoculum was added for 1 h at 37 °C for virus adsorption. After washing, the monolayer was cultured in DMEM supplemented with 2% FBS.
as §3, §4, §5

[3] = Cytotoxicity (Cell Titer-Glo viability) in non-infected RD cells; assay type: cell-based; settings: human, non-infected RD cells (ATCC CCL-136); for CC50 at 72 h: non-infected RD cells, compounds 0.5–100 μM
Experimental: RD cells (ATCC, CCL-136, Manassas, VA, USA) were maintained in Dulbecco’s modified Eagle’s medium (DMEM) (Gibco, Thermo Fisher Scientific, Waltham, MA, USA) supplemented with 10% fetal bovine serum (FBS) (Gibco), 1% L-glutamine (Gibco), 1% sodium bicarbonate (Gibco), and 1% penicillin-streptomycin (Gibco). The cell culture was incubated at 37 °C under 5% CO2.
as §3
(§7) For determination of compounds’ half maximal cytotoxic concentration (CC50), the non-infected HIOs/cells were treated with compounds (0.5–100 μM) for 72 h. The viability % was calculated as follows: (luminescence reading compound treated)/(luminescence reading DMSO control) × 100. The CC50 was calculated using non-linear regression (curve fit) with GraphPad Prism 9 (GraphPad, La Jolla, CA, USA). For determination of compounds half maximal effective concentration (EC50), the infected HIOs/cells were treated with DMSO (i.e., 0 µM) or compounds (0.15–40 μM) for 72 h. The CPE inhibition % was calculated as follows: (luminescence reading compound treated)/(luminescence reading DMSO control) × 100. The EC50 was calculated using non-linear regression (curve fit) with GraphPad Prism 9 (GraphPad).

EV-A71 BrCr strain [4] = assay: Viral RNA yield (RT-qPCR) in EV-A71-infected RD cells; assay type: cell-based, Enterovirus A71; settings: for Selectivity Index (SI) = CC50/EC50: EC50 from RNA yield; for EC50: Enterovirus A, EVA71, EV-A71 MOI 0.1, 72 h, RT-qPCR, read-out: EC50 based on RNA yield
Experimental: as §1, §6
(§8) RNA was extracted from harvested samples using RNeasy Plus Mini Kit (Qiagen, Hilden, Germany). cDNA was created from the isolated RNA using High-Capacity cDNA Reverse Transcription Kit (ThermoFisher Scientific, Waltham, MA, USA) according to the manufacturer’s instructions.
(§9) For EV-A71 replication quantification, each 10 µL reaction mixture contained: 5 µL of Master Mix, 1.5 µL of RNase-free water, 0.5 µL each of gene-specific forward and reverse primer, and 3 µL of cDNA as template. The reaction plate was loaded in a LightCycler® 480 Real-Time PCR System (Roche) and ran at 95 °C for 3 min for pre-incubation, followed by 40 amplification cycles of 95 °C for 15 s and 60 °C for 60 s. Signal detection and measurements were taken in each amplification cycle. The EV-A71 viral loads in the samples were detected with the PanEV primer using a previously described customized primers probe mix (Integrated DNA Technologies, Coralville, IA, USA). The viral gene copy number was determined by absolute quantification and making a standard curve using custom gBlocks™ Gene Fragments (Integrated DNA Technologies) (5′-[…]-3′).
as §5

[5] = Cytotoxicity (Cell Titer-Glo 3D viability) in non-infected HIOs; assay type: cell-based; settings: human; for CC50 at 72 h: non-infected HIOs, compounds 0.5–100 μM
Experimental: HiPSCs were cultured in colonies on Matrigel (Corning Inc., Corning, NY, USA) in mTeSR1 medium (STEMCELL Technologies, Vancouver, BC, Canada). HIOs were differentiated from the hiPSC line using STEMdiff™ Intestinal Organoid Kit (STEMCELL Technologies) following the manufacturer’s instructions. Briefly, hiPSCs were plated and differentiated towards definitive endoderm (day 3), and then to mid-/hindgut cells (day 5–9 post seeding). The spheroids generated during the mid-/hindgut stage were embedded in Matrigel and grown in intestinal growth media for further differentiation and expansion into intestinal organoids (30–45 days post hiPSCs seeding). After maturation and for long-term culture, HIOs were passaged twice a week, and medium was changed if needed every two days.
as §3, §7

EV-A71 BrCr strain [6] = assay: Viral RNA yield (RT-qPCR) in EV-A71-infected HIOs; assay type: cell-based, Enterovirus A71; settings: for Selectivity Index (SI) = CC50/EC50: EC50 from RNA yield; for EC50: Enterovirus A, EVA71, EV-A71 MOI 0.1, 72 h, RT-qPCR, read-out: EC50 based on RNA yield
Experimental: as §1, §2, §8, §9, §5

human rhinovirus (HRV) = tested on: human rhinovirus (HRV); design: method as in PMID 6113314, PMID 2984980; settings: cited from earlier work
HRV = tested on: HRV; design: method as in PMID 14638501; settings: human; cited from earlier work
HCV = tested on: HCV; design: method as in PMID 29534607, PMID 20006612, PMID 19426125; settings: human, HCV infection, after 8 to 12 weeks of treatment; cited from earlier work
enteroids = settings: cited from earlier work

Row | Compound | Selectivity Index (SI) = CC50/EC50 (EV-A71 BrCr strain [1]) | EC50 (EV-A71 BrCr strain [1]) [µM] | Selectivity Index (SI) = CC50/EC50 (EV-A71 BrCr strain [2]) | EC50 (EV-A71 BrCr strain [2]) [µM] | CC50 at 72 h [3] [µM] | Selectivity Index (SI) = CC50/EC50 (EV-A71 BrCr strain [4]) | EC50 (EV-A71 BrCr strain [4]) [µM] | CC50 at 72 h [5] [µM] | Selectivity Index (SI) = CC50/EC50 (EV-A71 BrCr strain [6]) | EC50 (EV-A71 BrCr strain [6]) [µM] | EV-A71-induced CPE upon visual inspection (EV-A71 BrCr strain [1]) | EV-A71-induced CPE upon visual inspection (EV-A71 BrCr strain [2]) | also measured
1 | C[C@@]1(O)[C@H](O)[C@@H](CO)O[C@H]1n1ccc(N)nc1=O [2′CMC, 2′-C-methylcytidine] | 48 | 1 ± 0.3 | >76 | 1.3 ± 0.04 | > 100 | >50 | 2 ± 0.4 | 48 ± 1 | 32 | 1.5 ± 0.3 | – | – | reduction of virus-induced CPE (maximum) (EV-A71 BrCr strain [1]; ATP-based viability assay, plateau from 2.5 μM to 20 μM): up to 66 ± 17%; protection from virus-induced CPE (EV-A71 BrCr strain [2]): complete protection
2 | CC(C)S(=O)(=O)n1c(N)nc2ccc(/C(=N/O)c3ccccc3)cc21 [Enviroxime, enviroxime] | 60 | 0.4 ± 0.2 | 467 | 0.06 ± 0.001 | 28 ± 2 | 140 | 0.2 ± 0.04 | 24 ± 7 | 17 | 1.4 ± 0.3 | reduced | reduced | viability at 72 h, 100 µM ([3]; RD cells, highest tested concentration 100 μM): 20%; viability at 72 h, 100 µM ([5]; HIOs, 100 µM): 0%; side effects in clinical studies (human rhinovirus (HRV); HRV infection): gastrointestinal side effects; clinical effects against infection (human rhinovirus (HRV)): no significant clinical effects
3 | CCOC(=O)/C=C/[C@H](C[C@@H]1CCNC1=O)NC(=O)[C@@H](CC(=O)[C@@H](NC(=O)c1cc(C)on1)C(C)C)Cc1ccc(F)cc1 [Rupintrivir, rupintrivir] | >667 | < 0.15 | >2857 | < 0.035 | > 100 | >2857 | < 0.035 | > 100 | >59 | 1.7 ± 0.4 | reduced | reduced | protection from EV-A71-induced CPE (EV-A71 BrCr strain [1]; lowest concentration tested 0.15 μM): full protection; protection from EV-A71-induced CPE (EV-A71 BrCr strain [2]; lowest concentration tested 0.035 μM): full protection; adverse side effects or treatment effects in phase II clinical studies (HRV): no adverse side effects or treatment effects; viral RNA levels (EV-A71 BrCr strain [4]; at all tested concentrations, MOI 0.1, 72 h): 10 ± 3%
4 | CC(C)[C@H](N)C(=O)O[C@@H]1[C@@H](CO)O[C@@H](n2ccc(N)nc2=O)[C@]1(C)O [Valopicitabine] | – | – | – | – | – | – | – | – | – | – | – | – | side effects during clinical study (HCV): gastrointestinal side effects
5 | CCC(C)n1ncn(-c2ccc(N3CCN(c4ccc(OCC5COC(Cn6cncn6)(c6ccc(Cl)cc6Cl)O5)cc4)CC3)cc2)c1=O (stereo not shown) [itraconazole] | – | – | – | – | – | – | – | – | – | – | – | – | cytotoxicity in enteroids compared to cell lines (enteroids): enhanced cytotoxicity
